Molecules are shown by their SMILES.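 Tested at 5 concentrations; 48 h exposure; 96-well plates; endpoints linearly interpolated, else capped at highest concentration. TGI marks complete inhibition of growth.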

Some test systems named below: MOLT-4 leukemia; NCI-H460 lung; OVCAR-5 ovarian; CAKI-1 renal; A549 NSCLC; MALME-3M melanoma; SN12C renal; TK-10 renal; NCI-H23 lung.
Holding throughout (experiment): growth of human tumour cells (NCI), 48 h

For the molecule `O=S(=O)(/C=C/c1ccc(F)cc1)Cc1ccc(CS(=O)(=O)/C=C/c2ccc(F)cc2)cc1`, the TGI in the assay on MOLT-4 leukemia, in the assay on NCI-H460 lung, in the assay with OVCAR-5 ovarian, in the assay on CAKI-1 renal, in the assay on A549 NSCLC and in the assay on MALME-3M melanoma was greater than 100 µM throughout. Besides, the TGI with SN12C renal, in the assay with TK-10 renal and in the assay with NCI-H23 lung was greater than 100 µM in each case.
For the molecule `C[C@H](OCc1ccccc1)C(=O)N1CCS(=O)(=O)N2CCC[C@@H]2C1=O`, the TGI in the assay with MOLT-4 leukemia, with NCI-H460 lung, with OVCAR-5 ovarian, in the assay with CAKI-1 renal, in the assay on A549 NSCLC and in the assay on MALME-3M melanoma was greater than 100 µM in each case. Besides, the TGI in the assay with SN12C renal, in the assay with TK-10 renal and in the assay with NCI-H23 lung was greater than 100 µM throughout.
With `O=C1C(c2ccccc2)=C(O)c2cccc3cccc1c23`, the TGI in the assay on MOLT-4 leukemia, in the assay with NCI-H460 lung, in the assay on OVCAR-5 ovarian, in the assay with CAKI-1 renal, in the assay on A549 NSCLC and with MALME-3M melanoma was greater than 100 µM each time. For the same molecule, the TGI in the assay on SN12C renal, in the assay with TK-10 renal and in the assay on NCI-H23 lung was greater than 100 µM in each case.
As to `Cc1ccc2c(c1)-c1c3c(nn1-c1ccccc1)-c1ccccc1SC3O2` (stereo not given), the TGI in the assay on MOLT-4 leukemia, in the assay on NCI-H460 lung, in the assay with OVCAR-5 ovarian, in the assay with A549 NSCLC, with MALME-3M melanoma and with TK-10 renal was greater than 100 µM throughout. This molecule yielded a TGI in the assay with NCI-H23 lung greater than 100 µM.
Consider `OC(CCNC12CC3CC(CC(C3)C1)C2)c1ccccc1` (stereo not given), for which the TGI with MOLT-4 leukemia, with NCI-H460 lung, with OVCAR-5 ovarian, in the assay on CAKI-1 renal, in the assay with A549 NSCLC and in the assay on MALME-3M melanoma was greater than 100 µM each time. The TGI in the assay on SN12C renal, in the assay on TK-10 renal and in the assay on NCI-H23 lung was greater than 100 µM each time.
Take `COc1ccc(/C=C/c2cc(OC)c(OC)c(OC)c2)cc1`: the TGI with MOLT-4 leukemia was greater than 100 µM; in the assay with NCI-H460 lung it was greater than 80.6 µM; in the assay on OVCAR-5 ovarian, greater than 100 µM; in the assay on CAKI-1 renal, 98.4 µM; with A549 NSCLC, greater than 100 µM; with MALME-3M melanoma, 74.3 µM. Moreover, the TGI in the assay with SN12C renal was greater than 100 µM; in the assay with TK-10 renal, greater than 100 µM; in the assay with NCI-H23 lung, greater than 81.5 µM.
Take `COc1cc2ccnc3c2c(c1OC)-c1coc(SC)c1-3`: the TGI in the assay with MOLT-4 leukemia, in the assay with NCI-H460 lung, in the assay with OVCAR-5 ovarian, with CAKI-1 renal, in the assay on A549 NSCLC and in the assay with MALME-3M melanoma was greater than 100 µM in each case. Besides, the TGI in the assay with SN12C renal and with TK-10 renal was greater than 100 µM in each case.
On to `CCOc1cc2c(C(=O)CC)c(O)ccc2o1`, for which the TGI in the assay on MOLT-4 leukemia, in the assay with NCI-H460 lung, with OVCAR-5 ovarian, in the assay on CAKI-1 renal, with A549 NSCLC and in the assay with MALME-3M melanoma was greater than 100 µM throughout. Also, the TGI in the assay on SN12C renal, with TK-10 renal and in the assay with NCI-H23 lung was greater than 100 µM in each case.
As for `C=C/C=C/NC(=O)OCc1ccccc1`, the TGI in the assay with MOLT-4 leukemia, in the assay with NCI-H460 lung, in the assay on OVCAR-5 ovarian, with CAKI-1 renal, in the assay with A549 NSCLC and in the assay on SN12C renal was greater than 100 µM each time. This molecule also displayed a TGI in the assay on TK-10 renal greater than 100 µM.
Regarding `O=C(c1ccc(Cl)cc1Cl)C1[C@H]2C(=O)N(c3ccc(Cc4ccc(N5C(=O)[C@@H]6ON(c7ccccc7)C(C(=O)c7ccc(Cl)cc7Cl)[C@@H]6C5=O)cc4)cc3)C(=O)[C@H]2ON1c1ccccc1` (stereo not given in full), the TGI in the assay on MOLT-4 leukemia, in the assay on NCI-H460 lung, with OVCAR-5 ovarian, in the assay on CAKI-1 renal, with A549 NSCLC and in the assay with MALME-3M melanoma was greater than 50 µM in each case. The TGI with SN12C renal, with TK-10 renal and with NCI-H23 lung was greater than 50 µM throughout.
For the molecule `CC(CN(C)C)/C(=N\Nc1ccccc1)c1ccccc1` (stereo not given), the TGI is 14 µM in the assay on MOLT-4 leukemia; 15.5 µM in the assay on NCI-H460 lung; 5.45 µM in the assay with OVCAR-5 ovarian; 2.4 µM in the assay with A549 NSCLC; 29.1 µM with MALME-3M melanoma; greater than 100 µM in the assay with SN12C renal. Also, the TGI in the assay on TK-10 renal was 5.56 µM; in the assay with NCI-H23 lung, 23.4 µM.
Regarding `COc1c(O)c2c3c(cc(C)cc3c1C(C)C)OC2`, the TGI in the assay with MOLT-4 leukemia, in the assay on NCI-H460 lung, in the assay on OVCAR-5 ovarian, in the assay with A549 NSCLC, in the assay on MALME-3M melanoma and in the assay on SN12C renal was greater than 100 µM each time. Besides, the TGI in the assay on TK-10 renal and with NCI-H23 lung was greater than 100 µM throughout.
For `NNC(=O)C1CCC(=O)N1S(=O)(=O)c1ccccc1` (stereo not given), the TGI in the assay on MOLT-4 leukemia, with NCI-H460 lung, in the assay on OVCAR-5 ovarian, with CAKI-1 renal, in the assay with A549 NSCLC and in the assay on MALME-3M melanoma was greater than 100 µM throughout. The TGI in the assay on SN12C renal, in the assay with TK-10 renal and in the assay on NCI-H23 lung was greater than 100 µM each time.
As to `CCOC(C[C@H](O[Si](C)(C)C(C)(C)C)[C@H]1COC(=S)S1)OCC`, the TGI in the assay on MOLT-4 leukemia, in the assay with NCI-H460 lung, in the assay on A549 NSCLC, with MALME-3M melanoma, with SN12C renal and in the assay with TK-10 renal was greater than 100 µM throughout. Besides, the TGI with NCI-H23 lung was greater than 100 µM.
For the molecule `CC1CCC/C1=C(/I)C(=O)c1ccccc1` (stereo not given), the TGI is 45.2 µM with MOLT-4 leukemia; greater than 100 µM in the assay with NCI-H460 lung; greater than 100 µM with OVCAR-5 ovarian; 69.5 µM in the assay on CAKI-1 renal; greater than 100 µM in the assay on A549 NSCLC; greater than 100 µM with MALME-3M melanoma. In addition, the TGI in the assay on SN12C renal, with TK-10 renal and in the assay on NCI-H23 lung was greater than 100 µM in each case.
Regarding `COc1cc2c[n+](C)c3c4cc(OC)c(OC(C)C)cc4ccc3c2cc1OC`, the TGI in the assay with MOLT-4 leukemia, with NCI-H460 lung, with OVCAR-5 ovarian, in the assay on CAKI-1 renal, in the assay on A549 NSCLC and in the assay on MALME-3M melanoma was greater than 100 µM each time. Moreover, the TGI in the assay on SN12C renal, in the assay on TK-10 renal and in the assay on NCI-H23 lung was greater than 100 µM each time.

The values are drawn from PubChem BioAssay (NCI).
